One assay has as its system MCF-7 breast cancer cell line. The assay is described as follows: MTS cell viability (antiproliferative) assay in MCF-7. It is filed as cell-based. The settings on record: Homo sapiens, MCF7, 72 h, MTS assay, 72 hours, mean ± SD. The protocol:
Hormone-positive breast cancer cell line MCF-7 (ATCC-HTB-22; ATCC) was grown in Dulbecco's Modified Eagle's Medium (DMEM), while Ewing sarcoma cell line SK-N-MC (a kind gift from Beat Schäfer) and THP-1 (ATCC-TIB-202; ATCC) cells were grown in Roswell Park Memorial Institute (RPMI) 1640. The medium was supplemented with 10% heat-inactivated fetal bovine serum (Gibco, Thermo Fisher Scientific, Waltham, MA, USA), 100 U per mL penicillin, 100 μg per mL streptomycin, and 2 mM L-glutamine (all from Sigma-Aldrich, St. Louis, MO, USA). All cell lines were incubated at 37 °C in a 5% CO2 atmosphere.
The antiproliferative activity of the compounds was evaluated against MCF-7 (ATCC-HTB-22; ATCC), SK-N-MC (a kind gift from Beat Schäfer) and THP-1 (ATCC-TIB-202; ATCC) cancer cell lines using the MTS assay (Promega, Madison, WI, USA). Cells were seeded in 96-well plates at a density of 2 × 10^4 cells per mL in 100 μL of growth medium for THP-1 and were treated with compounds and controls directly, while 3 × 10^3 cells per mL for MCF-7 and SK-N-MC were seeded in 100 μL of growth medium and allowed to adhere overnight following the treatment. In all cases the cells were treated with respective newly prepared compounds, positive controls (17-DMAG for MCF-7 and SK-N-MC; PU-H71 for THP-1) and a vehicle control (0.5% DMSO). The incubation time after treatment was 72 hours, then CellTiter96® Aqueous One Solution Reagent (Promega, Madison, WI, USA) was added to each well. Following a 3 hours incubation, absorbance was measured at 492 nm using BioTek's Synergy™ 4 Hybrid Microplate Reader (Winooski, VT, USA). The measurements were performed in two biological repetitions and each time the experiment was performed in a triplicate. The IC50 values, representing the concentration of inhibitor required for half-maximal inhibition, are the average of three independent experiments and were calculated using GraphPad Prism 9.5.0 software (San Diego, CA, USA).
In general terms: Formazan colour is commonly taken as a measure of viable cells.
Turning to `O=C(NCCc1ccccc1)c1cccc(Nc2cc(N3CCCC3)ncn2)c1` [Compound 11a, N-Phenethyl-3-((6-(pyrrolidin-1-yl)pyrimidin-4-yl)amino)benzamide], the IC50 (in general, the concentration that gives 50% inhibition) turned out to be 20.6 ± 3 µM.
On to `CN(CCc1ccccc1)C(=O)c1csc(Nc2cc(N3CCNCC3)ncn2)n1` [Compound 8b, N-Methyl-N-phenethyl-2-((6-(piperazin-1-yl)pyrimidin-4-yl)amino)thiazole-4-carboxamide], for which the IC50 is 27.3 ± 2 µM.
On to `CN(CCOc1ccccc1)C(=O)c1cccc(Nc2cc(N3CCNCC3)ncn2)c1` [Compound 13e, N-Methyl-N-(2-phenoxyethyl)-3-((6-(piperazin-1-yl)pyrimidin-4-yl)amino)benzamide], for which the IC50 is greater than 50 µM.
As to `N#CCN1CCN(c2cc(Nc3ccc(C(=O)NCCOc4ccccc4)cc3)ncn2)CC1` [Compound 24, 4-((6-(4-(Cyanomethyl)piperazin-1-yl)pyrimidin-4-yl)amino)-N-(2-phenoxyethyl)benzamide], the IC50 is greater than 50 µM.
In the case of `O=C(NCCc1ccccc1)c1ccc(Nc2cc(N3CCNCC3)ncn2)cc1` [Compound 13f, N-Phenethyl-4-((6-(piperazin-1-yl)pyrimidin-4-yl)amino)benzamide], the IC50 came out at 17.9 ± 0.5 µM.
Still for that read-out and setting: to `CN(CCOc1ccccc1)C(=O)c1ccc(Nc2cc(N3CCCC3)ncn2)cc1` [Compound 11j, N-Methyl-N-(2-phenoxyethyl)-4-((6-(pyrrolidin-1-yl)pyrimidin-4-yl)amino)benzamide] belongs greater than 50 µM.
For the compound `COc1ccc(OCCN(C)C(=O)c2csc(Nc3cc(C4CCCN(CC#N)C4)nc(C)n3)n2)cc1` (stereo not shown) [Compound 2], the IC50 amounted to 47.4 ± 0.9 µM.
On the same count and under the same terms, the value for `NC1CCN(c2cc(Nc3ccc(C(=O)NCCOc4ccccc4)cc3)ncn2)CC1` [Compound 23, 4-((6-(4-Aminopiperidin-1-yl)pyrimidin-4-yl)amino)-N-(2-phenoxyethyl)benzamide] was greater than 50 µM; that for `CN(Cc1ccccc1)C(=O)c1cccc(Nc2cc(N3CCNCC3)ncn2)c1` [Compound 13c, N-Benzyl-N-methyl-3-((6-(piperazin-1-yl)pyrimidin-4-yl)amino)benzamide] was 31.9 ± 2.1 µM; that for `COc1ccccc1OCCN(C)C(=O)c1csc(Nc2cc(C3CCCN(CC#N)C3)nc(C)n2)n1` (stereo not shown) [Compound 3] was 34.9 ± 2.7 µM.
On the same count and under the same terms, to `CN(Cc1ccccc1)C(=O)c1ccc(Nc2cc(N3CCNCC3)ncn2)cc1` [Compound 13h, N-Benzyl-N-methyl-4-((6-(piperazin-1-yl)pyrimidin-4-yl)amino)benzamide] belongs 14.5 ± 4.7 µM.
On the same count and under the same terms, the value for `CN(CCc1ccccc1)C(=O)c1ccc(Nc2cc(N3CCCC3)ncn2)cc1` [Compound 11i, N-Methyl-N-phenethyl-4-((6-(pyrrolidin-1-yl)pyrimidin-4-yl)amino)benzamide] was 18 ± 1.5 µM; that for `CN(CCc1ccccc1)C(=O)c1cccc(Nc2cc(N3CCNCC3)ncn2)c1` [Compound 13d, N-Methyl-N-phenethyl-3-((6-(piperazin-1-yl)pyrimidin-4-yl)amino)benzamide] was greater than 50 µM.
As for `CN(CCOc1ccccc1)C(=O)c1ccc(Nc2cc(N3CCNCC3)ncn2)cc1` [Compound 13j, N-Methyl-N-(2-phenoxyethyl)-4-((6-(piperazin-1-yl)pyrimidin-4-yl)amino)benzamide], the IC50 is 20.8 ± 2.7 µM.
The same measure, in the same setting: the value for `CN(CCc1ccccc1)C(=O)c1cccc(Nc2cc(N3CCCCC3)ncn2)c1` [Compound 14, N-Methyl-N-phenethyl-3-((6-(piperidin-1-yl)pyrimidin-4-yl)amino)benzamide] was greater than 50 µM.
`CN(CCc1ccccc1)C(=O)c1ccc(Nc2cc(N3CCNCC3)ncn2)cc1` [Compound 13i, N-Methyl-N-phenethyl-4-((6-(piperazin-1-yl)pyrimidin-4-yl)amino)benzamide]: the IC50 amounted to 38.3 ± 4.9 µM.
The same measure, in the same setting: the value for `CN(CCc1ccccc1)C(=O)c1cccc(Nc2cc(N3CCC(N)CC3)ncn2)c1` [Compound 18, 3-((6-(4-Aminopiperidin-1-yl)pyrimidin-4-yl)amino)-N-methyl-N-phenethylbenzamide] was greater than 50 µM.

Still in this assay, the particulars now being: MTS assay, 72 hours, mean ± SD.
In the case of `N#CCN1CCN(c2cc(Nc3ccc(C(=O)NCCOc4ccccc4)cc3)ncn2)CC1` [Compound 24, 4-((6-(4-(Cyanomethyl)piperazin-1-yl)pyrimidin-4-yl)amino)-N-(2-phenoxyethyl)benzamide], the “MCF-7 IC50” value was “loss of activity”.
Same read-out and setting: the value for `CN(CCc1ccccc1)C(=O)c1cccc(Nc2cc(N3CCC(N)CC3)ncn2)c1` [Compound 18, 3-((6-(4-Aminopiperidin-1-yl)pyrimidin-4-yl)amino)-N-methyl-N-phenethylbenzamide] was “not active”.

These data come from article PMC11375794, “Discovery of new Hsp90–Cdc37 protein–protein interaction inhibitors: in silico screening and optimization of anticancer activity” (RSC Advances, 2024).
